Source: PMC12458683, “Water-Based Pharmacophore Modeling in Kinase Inhibitor Design: A Case Study on Fyn and Lyn Protein Kinases” (Journal of Chemical Information and Modeling, 2025)

What was measured:
Fyn (h) = molecular target: T1, Fyn (h) (Homo sapiens, UniProt P06241); assay: radiometric kinase assay ([gamma-33P]-ATP, filter binding), 9-point dilution; type: biochemical
T1 construct: Eurofins KinaseProfiler enzyme
Source text: radiometric kinase assay ([gamma-33P]-ATP, filter binding), 9-point dilution on Fyn (h)

Lyn (h) = molecular target: T2, Lyn (h) (Homo sapiens, UniProt P07948); assay: as above; type: biochemical
T2 construct: Eurofins KinaseProfiler enzyme
T2 sequence (P07948 2-512): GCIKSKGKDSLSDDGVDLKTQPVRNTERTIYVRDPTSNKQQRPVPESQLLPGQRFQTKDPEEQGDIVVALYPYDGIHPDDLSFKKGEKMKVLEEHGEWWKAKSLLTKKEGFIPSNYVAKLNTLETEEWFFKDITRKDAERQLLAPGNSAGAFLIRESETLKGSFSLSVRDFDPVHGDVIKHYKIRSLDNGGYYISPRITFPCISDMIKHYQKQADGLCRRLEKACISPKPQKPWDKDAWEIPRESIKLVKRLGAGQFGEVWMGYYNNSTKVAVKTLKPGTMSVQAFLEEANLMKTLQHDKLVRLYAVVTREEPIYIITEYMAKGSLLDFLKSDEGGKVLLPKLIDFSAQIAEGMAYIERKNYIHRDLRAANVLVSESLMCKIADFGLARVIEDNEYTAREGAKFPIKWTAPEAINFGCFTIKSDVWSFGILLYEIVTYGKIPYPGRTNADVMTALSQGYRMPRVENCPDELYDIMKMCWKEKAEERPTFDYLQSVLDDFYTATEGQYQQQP
Source text: radiometric kinase assay ([gamma-33P]-ATP, filter binding), 9-point dilution on Lyn (h)

T1 sequence (P06241 2-537): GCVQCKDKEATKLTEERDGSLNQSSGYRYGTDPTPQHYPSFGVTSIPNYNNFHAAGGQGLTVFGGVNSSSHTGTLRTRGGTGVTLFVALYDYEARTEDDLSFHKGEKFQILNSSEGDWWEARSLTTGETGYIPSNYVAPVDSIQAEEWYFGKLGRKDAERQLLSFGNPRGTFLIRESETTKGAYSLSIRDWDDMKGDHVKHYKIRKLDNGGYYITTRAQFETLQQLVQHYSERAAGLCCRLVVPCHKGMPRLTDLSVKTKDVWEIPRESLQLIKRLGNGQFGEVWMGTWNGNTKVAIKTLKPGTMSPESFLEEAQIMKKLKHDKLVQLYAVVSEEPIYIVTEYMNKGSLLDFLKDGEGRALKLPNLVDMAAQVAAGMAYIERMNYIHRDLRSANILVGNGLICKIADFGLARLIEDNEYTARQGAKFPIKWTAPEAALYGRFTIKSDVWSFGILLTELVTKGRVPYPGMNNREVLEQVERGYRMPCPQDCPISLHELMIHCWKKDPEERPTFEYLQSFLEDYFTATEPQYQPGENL

COc1cc(O)c2c(=O)c(-c3ccc(O[C@@H]4O[C@H](CO)[C@@H](O)[C@H](O)[C@H]4O)cc3)coc2c1 [compound 1]
IC50 (Fyn (h)): 8.66 µM
IC50 (Lyn (h)): 4.39 µM
